The record followed here is ChEMBL document CHEMBL1121828, “Quantitative structure-selectivity relationships. Comparison of the inhibition of Escherichia coli and bovine liver dihydrofolate reductase by 5-(substituted-benzyl)-2,4-diaminopyrimidines” (J Med Chem, 1981).

Assay [1] deals with T1, Dihydrofolate reductase (Bos taurus) (UniProt P00376).
T1 sequence (whole entry): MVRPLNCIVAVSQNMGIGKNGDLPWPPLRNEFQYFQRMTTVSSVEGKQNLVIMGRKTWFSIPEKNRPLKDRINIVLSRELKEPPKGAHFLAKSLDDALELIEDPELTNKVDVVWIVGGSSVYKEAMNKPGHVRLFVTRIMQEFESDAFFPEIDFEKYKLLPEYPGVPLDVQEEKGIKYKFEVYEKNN
Description: Inhibition of dihydrofolate reductase from bovine liver

The target in assay [2] is T2, Dihydrofolate reductase (Escherichia coli) (UniProt P0ABQ4).
T2 sequence (whole entry): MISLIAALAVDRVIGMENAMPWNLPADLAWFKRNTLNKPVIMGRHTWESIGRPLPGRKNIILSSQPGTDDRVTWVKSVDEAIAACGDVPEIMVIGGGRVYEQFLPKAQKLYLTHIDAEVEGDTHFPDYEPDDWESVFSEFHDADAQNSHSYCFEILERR
Description: Compound is evaluated for the inhibition of dihydrofolate reductase from Escherichia coli

In assay [1], `COCc1cccc(Cc2cnc(N)nc2N)c1` displayed a Log 1/Ki app of 5.49.

With `Nc1ncc(Cc2ccc(OC(F)(F)F)cc2)c(N)n1`, the Log 1/Ki app in assay [1] came to 5.42; in assay [2], 6.57.

`Cc1ccc(Cc2cnc(N)nc2N)cc1`: the Log 1/Ki app in assay [1] is 4.8.

In assay [1], `Nc1ncc(Cc2cccc(O)c2)c(N)n1` displayed a Log 1/Ki app of 4.88.

For `COc1ccc(Cc2cnc(N)nc2N)cc1OC`, the Log 1/Ki app in assay [1] was 5.15.

In turn, `Nc1ncc(Cc2cccc(C(F)(F)F)c2)c(N)n1` registered a Log 1/Ki app in assay [1] of 5.53.

With `CCCCOc1ccc(Cc2cnc(N)nc2N)cc1`, the Log 1/Ki app in assay [1] was found to be 5.74.

Molecule `CCCCOCc1cccc(Cc2cnc(N)nc2N)c1` had a Log 1/Ki app in assay [1] of 5.86.

On to `Nc1ccc(Cc2cnc(N)nc2N)cc1`, for which the Log 1/Ki app in assay [1] is 4.57.

`Nc1ncc(Cc2cccc(I)c2)c(N)n1` gave a Log 1/Ki app in assay [1] of 6.15.

With `CC(=O)Nc1ccc(Cc2cnc(N)nc2N)cc1[N+](=O)[O-]`, the Log 1/Ki app in assay [1] came to 5.16; in assay [2], 6.97.

In turn, `COCCOc1c(OC)cc(Cc2cnc(N)nc2N)cc1OC` showed a Log 1/Ki app in assay [1] of 4.88.

`Nc1ncc(Cc2cccc(CO)c2)c(N)n1` registered a Log 1/Ki app in assay [1] of 5.2.

Regarding `CS(=O)(=O)Oc1cccc(Cc2cnc(N)nc2N)c1`, the Log 1/Ki app is 5.58 in assay [1] and 6.92 in assay [2].
